Assay results reported in paper PMC9017425, “Integrative Analysis of Pharmacokinetic and Metabolomic Profiles for Predicting Metabolic Phenotype and Drug Exposure Caused by Sotorasib in Rats” (Frontiers in Oncology, 2022).
Like-named read-outs stand apart in the source and are kept apart here.

Columns and labels:
[1] = Pharmacokinetic study of sotorasib in rats after oral administration (HPLC-MS/MS of plasma); type: in vivo; conditions: male, Sprague-Dawley, rat
Protocol: For the PK study, a chromatographic system of Shimadzu LC-20ADXR (Kyoto, Japan) coupled with a mass spectrometer (QTRAP 5500; SCIEX, Concord, Canada) was utilized for chromatographic separation and mass quantitation ([19]). The column temperature was set to 40°C on a reversed-phase C18 column (50 mm × 2.1 mm i.d., 3.5 μm) (XBrige; Waters, Milford, MA, USA), and the total run time was 3.0 min. Both mobile phases contained 0.1% formic acid. Gradient elution was adopted to comply with the compounds’ baseline separation (0–0.1 min, 90% water phase; 0.1–1.2 min, 10% water phase; 1.2–2.2 min, 0% water phase; and 2.2–3.0 min, 90% water phase). The flow rate was fixed at 0.4 ml/min with an injection volume of 2 μl. A time-efficient washing procedure composed of MeOH/water/ACN/IPA (1:1:1:1, v/v/v/v) was applied during the entire analyses. Multiple reaction monitoring (MRM) was utilized with the following parameters: ion spray voltage, 5,500 V; temperature, 550°C; curtain gas, 20.0 psi; ion source, gas 1 at 55.0 psi; and turbo ion source, gas 2 at 55.0 psi. A proton adduct [M+H]^+ ion and double MRM transitions were used, which were set at m/z 561.4→317.1 (qualifier) and m/z 561.4→134.1 (quantifier) for sotorasib and at 237.0→194.1 for the IS.
During the PK study, all unknown plasma samples were mixed for 1 min and 20 μl aliquot of plasma was pipetted into an Eppendorf centrifuge tube. Protein precipitation was adopted for the preparation of the sample. After the addition of 10 μl IS working solution (10 ng/ml) and 80 μl MeOH, proteins were extracted by vortex mixing for approximately 30 s. The supernatant was centrifuged at 13,500 rpm for 10 min at 4°C. The extraction solutions were then pipetted into autosampler vials.
Six Sprague–Dawley rats (180–220 g, 8-week-old males; animal license: SCXK-2019-0008) were purchased from Beijing Vital River Laboratory Animal Technologies Co., Ltd. (Beijing, China). All rats were fed in a specific pathogen-free (SPF) conditioned room to allow acclimatization for 1 week. Animal experiments were implemented in line with the Guidelines for the Care and Use of Laboratory Animals, and animal ethics was approved by Beijing Chao-Yang Hospital, Capital Medical University. Rats were orally administered sotorasib dissolved with 1% Tween-80 and 2% hydroxypropyl methylcellulose (HPMC) in water at a dose of 10 mg/kg. Biological samples (approximately 500 μl) were collected from ophthalmic veins into heparin-anticoagulated collection tubes before administration and at 15 min, 30 min, and 1, 1.5, 2, 2.5, 3, 4, and 8 h after administration. Plasma samples were acquired by direct centrifugation at 3,500 rpm for 10 min at 4°C.
Raw data files were processed and checked using Analyst 1.6.3 and MultiQuant 3.0.1 (SCIEX, Concord, Canada). The concentrations of the analytes were calculated according to the calibration curve. Pharmacokinetic parameters, such as C max and the area under the curve (AUC), were calculated using Phoenix WinNonLin software (Pharsight 8.3, Mountain View, CA, USA). Pearson’s correlation was employed to investigate the correlation between the metabolomic data and PK parameters using IBM SPSS 26.0 (Armonk, NY, USA). SIMCA-P software (v14.1; Umetric, Umeå, Sweden) was employed to build mathematical models, including unsupervised principal component analysis (PCA), supervised orthogonal projection to latent structures discriminant analysis (OPLS-DA), and partial least squares (PLS). Compounds with values of variable importance in the projections (VIP) >1 and statistical significance of p < 0.05 were selected for further identification and metabolic pathway analysis. One hundred or 200 random permutation tests were employed to examine overfitting and random effects, which can assess the predictive ability of the model. Meanwhile, significant variables with p < 0.05 and fold change (FC) >2 or <0.5 were considered potential biomarkers. […]

[2] = Stability of sotorasib in rat plasma QC samples under different storage conditions; type: in vitro ADME; conditions: for Post-preparation stability, measured concentration Mean ± SD / Room temperature stability, measured concentration Mean ± SD / Freeze–thaw stability, measured concentration Mean ± SD / Long-term stability, measured concentration Mean ± SD: n = 6; for Room temperature stability, measured concentration Mean ± SD: rat plasma, ambient temperature; for Freeze–thaw stability, measured concentration Mean ± SD: three cycles −80°C to ambient temperature; for Long-term stability, measured concentration Mean ± SD: −80°C for 3 months
Text: Stability was investigated at LQC and HQC concentrations in six replicates. […] If the %Bias is within ±15%, the stability is considered acceptable.

[3] = Working solution stability of sotorasib; type: physicochemical; conditions: −80°C for 10 days, n = 6
Protocol: Stock solutions of sotorasib and IS were equipped using ACN at a concentration of 1.0 mg/ml and further diluted for the calibration standards and quality control (QC) samples at a final concentration of 500 µg/ml separately. The working IS solution was prepared in MeOH at a concentration of 10 ng/ml. The working calibration solutions of sotorasib were completed in dilution (MeOH/water = 1:1, v/v) to obtain concentrations of 5, 10, 20, 50, 100, 100, 200, 500, 1,000, 2,000, and 5,000 ng/ml. Similarly, the QC working solutions of analytes were prepared to obtain final concentrations of 10, 200, and 4,000 ng/ml. All solutions were stored in a −80°C freezer pending analysis. For the PK study, calibrations were made in blank rat plasma to achieve a nominal concentration range of 0.5–500 ng/ml. QC plasma samples were prepared in blank rat plasma at nominal concentrations of 1, 20, and 400 ng/ml. Stability was investigated at LQC and HQC concentrations in six replicates. The stability conditions incorporated the short-term (at ambient temperature for 24 h), freeze–thaw (−80°C to ambient temperature, three sequential cycles), post-preparation (autosampler, 24 h), and long-term (−80°C for 3 months) status. If the %Bias is within ±15%, the stability is considered acceptable.

[4] = set-up: method as in PMID 33957355; conditions: mice, single oral 20 mg/kg; cited from earlier work
[5] = set-up: method as in PMID 33283304; conditions: oral administration, 50 mg/kg; cited from earlier work
[6] = rats, 10 mg/kg, n = 6, mean ± SD

concentration at 15 min ([1]; 10-mg/kg dose, 15 min after administration, single sample, read-out: plasma concentration of an unknown sample): 298 ng/mL
AUC(0-inf) [1, 6]: 463 ± 167 ng·h/mL
AUC(0-t) [1, 6]: 457 ± 165 ng·h/mL
Cmax [1, 6]: 227 ± 98.8 ng/mL
half-life [1, 6]: 74.4 ± 13.2 min
CL/F ([1]; rats, 10 mg/kg, n = 6, mean ± SD, read-out: CL_F (apparent clearance) (converted)): 400 mL/min/kg
MRT ([1]; rats, 10 mg/kg, n = 6, mean ± SD, read-out: MRT (mean residence time)): 113 ± 10.8 min
Vd/F ([1]; rats, 10 mg/kg, n = 6, mean ± SD, read-out: Vz_F (apparent volume of distribution)): 43.3 ± 17.9 L/kg
Tmax ([1]; rats, 10 mg/kg, n = 6, median (range)): 30 min
stability under several storage conditions in plasma or in solution ([2]; ambient temperature 6 h, three freeze–thaw cycles, autosampler 24 h, working solution −80°C 10 days, −80°C 3 months): stable
Post-preparation stability, measured concentration Mean ± SD ([2]; nominal 1 ng/ml, autosampler 24 h): 1.07 ± 0.06 ng/mL
Room temperature stability, measured concentration Mean ± SD ([2]; nominal 1 ng/ml): 1.03 ± 0.10 ng/mL
Freeze–thaw stability, measured concentration Mean ± SD ([2]; nominal 1 ng/ml): 1.06 ± 0.07 ng/mL
Long-term stability, measured concentration Mean ± SD ([2]; nominal 1 ng/ml): 1.01 ± 0.07 ng/mL
Post-preparation stability, measured concentration Mean ± SD ([2]; nominal 400 ng/ml, autosampler 24 h): 441.20 ± 10.76 ng/mL
Room temperature stability, measured concentration Mean ± SD ([2]; nominal 400 ng/ml): 434.00 ± 8.07 ng/mL
Freeze–thaw stability, measured concentration Mean ± SD ([2]; nominal 400 ng/ml): 448.60 ± 6.19 ng/mL
Long-term stability, measured concentration Mean ± SD ([2]; nominal 400 ng/ml): 399.67 ± 20.10 ng/mL
Working solution stability, measured concentration Mean ± SD ([3]; nominal 1 ng/ml): 1.034 ± 0.08 ng/mL
Working solution stability, measured concentration Mean ± SD ([3]; nominal 400 ng/ml): 409.37 ± 37.98 ng/mL
SMILES: C=CC(=O)N1CCN(c2nc(=O)n(-c3c(C)ccnc3C(C)C)c3nc(-c4c(O)cccc4F)c(F)cc23)[C@@H](C)C1 [Sotorasib]
AUC0–4 [4]: 3,766 ± 896 ng·h/ml
C max [4]: 4,231 ± 1,208 ng/ml
T max [4]: 12.6 ± 3.6 min
t 1/2 [4]: 36 ± 3.6 min
time in which C max was achieved [4]: < 15 min
AUC0–∞ [5]: 170 ng·h/mL
C max [5]: 123 ng/mL
T max [5]: 15 min
t 1/2 [5]: 114 min
